From ChEMBL document CHEMBL1129671, “Substituted (pyrroloamino)pyridines: potential agents for the treatment of Alzheimer's disease” (J Med Chem, 1996)

Key:
[1] = biological target: T1, Adrenergic receptor alpha-2 (Rattus norvegicus, UniProt P22086+P19328+P22909); test: Compound was tested for inhibition of [3H]yohimbine against Alpha-2 adrenergic receptor from rat cortical membranes using in vitro adrenergic receptor binding assay.; type: cell membranes, Membrane
T1 sequence (P22086 whole entry): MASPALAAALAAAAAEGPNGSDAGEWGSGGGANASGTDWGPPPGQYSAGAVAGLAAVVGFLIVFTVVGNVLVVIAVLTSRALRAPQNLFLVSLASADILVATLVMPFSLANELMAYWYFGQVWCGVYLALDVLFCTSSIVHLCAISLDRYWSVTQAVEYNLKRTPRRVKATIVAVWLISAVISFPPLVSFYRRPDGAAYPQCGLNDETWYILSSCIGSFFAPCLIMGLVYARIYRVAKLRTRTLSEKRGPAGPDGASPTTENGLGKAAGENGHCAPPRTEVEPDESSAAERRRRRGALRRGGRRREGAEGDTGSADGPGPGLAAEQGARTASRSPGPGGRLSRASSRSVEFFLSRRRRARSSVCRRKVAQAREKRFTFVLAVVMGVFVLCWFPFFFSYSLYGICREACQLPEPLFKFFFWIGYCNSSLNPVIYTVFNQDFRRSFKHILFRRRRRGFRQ
T1 sequence (P19328 whole entry): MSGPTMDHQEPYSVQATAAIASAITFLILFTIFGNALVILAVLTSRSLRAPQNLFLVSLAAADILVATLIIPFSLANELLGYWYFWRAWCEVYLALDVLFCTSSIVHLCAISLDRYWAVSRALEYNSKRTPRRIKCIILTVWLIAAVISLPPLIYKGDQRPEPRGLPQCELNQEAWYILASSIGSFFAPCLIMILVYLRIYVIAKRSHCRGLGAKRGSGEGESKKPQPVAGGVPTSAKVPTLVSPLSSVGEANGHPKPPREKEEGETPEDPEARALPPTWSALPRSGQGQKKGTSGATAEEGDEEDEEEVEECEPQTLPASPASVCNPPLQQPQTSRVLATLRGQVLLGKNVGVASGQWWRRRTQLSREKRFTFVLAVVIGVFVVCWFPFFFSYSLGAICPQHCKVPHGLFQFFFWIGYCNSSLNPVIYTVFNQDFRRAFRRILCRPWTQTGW
T1 sequence (P22909 whole entry): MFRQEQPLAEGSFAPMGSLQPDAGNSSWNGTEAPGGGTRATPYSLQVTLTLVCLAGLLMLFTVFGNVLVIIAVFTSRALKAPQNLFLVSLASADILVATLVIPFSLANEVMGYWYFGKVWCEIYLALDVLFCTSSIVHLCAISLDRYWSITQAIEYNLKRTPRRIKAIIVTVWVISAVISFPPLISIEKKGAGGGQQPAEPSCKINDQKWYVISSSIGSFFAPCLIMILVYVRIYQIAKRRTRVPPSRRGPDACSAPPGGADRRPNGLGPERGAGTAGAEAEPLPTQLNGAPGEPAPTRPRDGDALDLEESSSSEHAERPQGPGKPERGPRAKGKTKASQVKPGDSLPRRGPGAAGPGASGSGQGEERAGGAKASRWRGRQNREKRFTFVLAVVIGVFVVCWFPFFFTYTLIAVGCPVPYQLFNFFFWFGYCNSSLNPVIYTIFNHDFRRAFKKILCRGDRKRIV

[2] = biological target: T2, Acetylcholinesterase (Rattus norvegicus, UniProt P37136); test: In vitro inhibition of Acetylcholinesterase from rat striatum
T2 sequence (P37136 whole entry): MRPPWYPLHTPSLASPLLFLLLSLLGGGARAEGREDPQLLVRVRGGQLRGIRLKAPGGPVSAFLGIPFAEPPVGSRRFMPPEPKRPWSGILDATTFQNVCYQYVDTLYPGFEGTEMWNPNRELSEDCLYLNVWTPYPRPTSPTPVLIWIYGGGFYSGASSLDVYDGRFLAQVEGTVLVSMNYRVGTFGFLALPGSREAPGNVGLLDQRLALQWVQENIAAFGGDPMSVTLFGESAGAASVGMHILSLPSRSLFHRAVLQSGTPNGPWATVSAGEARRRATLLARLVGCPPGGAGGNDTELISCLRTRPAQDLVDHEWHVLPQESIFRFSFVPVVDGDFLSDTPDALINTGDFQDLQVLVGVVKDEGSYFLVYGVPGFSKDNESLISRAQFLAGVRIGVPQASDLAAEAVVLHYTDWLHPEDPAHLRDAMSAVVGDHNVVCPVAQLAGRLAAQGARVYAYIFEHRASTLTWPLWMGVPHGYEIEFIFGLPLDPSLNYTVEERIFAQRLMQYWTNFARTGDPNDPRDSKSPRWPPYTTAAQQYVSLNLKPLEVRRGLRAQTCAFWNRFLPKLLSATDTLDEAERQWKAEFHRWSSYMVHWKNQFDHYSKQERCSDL

[3] = biological target: T1, Adrenergic receptor alpha-2; test: Compound was tested for inhibition of [3H]clonidine against Alpha-2 adrenergic receptor from rat cortical membranes using in vitro adrenergic receptor binding assay.; type: cell membranes, Membrane

C=Cc1cccn1N(C)c1ccncc1
IC50 [1]: 950 nM
IC50 [2]: > 100000 nM
IC50 [3]: 210 nM
